Measurements from patent US8362005B2, “Monocyclic amide CGRP receptor antagonists” (Merk. Sharp & Dohme Corp., priority 2008, dated 2013).
Ends that are not written are not given here.

Assays:
facial blood flow [1] = conditions: marmoset, electrical stimulation of the trigeminal ganglion; cited from earlier work
[2] = test system: acute attacks of migraine; conditions: clinical trials; cited from earlier work
[3] = test system: headache induced by CGRP infusion; conditions: control group, clinical; cited from earlier work
[4] = target: T1, recombinant human CL receptor/RAMP1 (Homo sapiens, UniProt O60894+Q16602); assay: Recombinant receptor binding assay (125I-hCGRP, membranes of HEK 293 cells); conditions: 10 pM 125I-hCGRP
T1 construct: expressed in transfected cells; membranes
T1 sequence (Q16602 23-461): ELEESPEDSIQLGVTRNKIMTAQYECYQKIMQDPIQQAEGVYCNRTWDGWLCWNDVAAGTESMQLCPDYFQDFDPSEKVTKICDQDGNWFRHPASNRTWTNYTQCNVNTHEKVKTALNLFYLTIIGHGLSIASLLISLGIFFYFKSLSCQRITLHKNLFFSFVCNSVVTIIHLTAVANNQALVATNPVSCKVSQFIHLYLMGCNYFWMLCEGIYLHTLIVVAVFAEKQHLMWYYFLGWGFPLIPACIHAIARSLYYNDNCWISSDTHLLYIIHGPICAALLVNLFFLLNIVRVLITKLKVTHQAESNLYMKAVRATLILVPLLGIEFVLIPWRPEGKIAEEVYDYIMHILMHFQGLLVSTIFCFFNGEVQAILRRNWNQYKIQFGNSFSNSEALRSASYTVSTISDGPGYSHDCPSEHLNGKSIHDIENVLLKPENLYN
T1 sequence (O60894 27-148): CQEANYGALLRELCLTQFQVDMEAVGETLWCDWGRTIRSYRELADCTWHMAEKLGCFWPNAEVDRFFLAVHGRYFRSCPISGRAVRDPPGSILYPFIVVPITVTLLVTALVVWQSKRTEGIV
Experimental: RECOMBINANT RECEPTOR: Human CL receptor (Genbank accession number L76380) was subcloned into the expression vector pIREShyg2 (BD Biosciences Clontech) as a 5′NheI and 3′ PmeI fragment. Human RAMP 1 (Genbank accession number AJ001014) was subcloned into the expression vector pIRESpuro2 (BD Biosciences Clontech) as a 5′NheI and 3′NotI fragment. HEK 293 cells (human embryonic kidney cells; ATCC #CRL-1573) were cultured in DMEM with 4.5 g/L glucose, 1 mM sodium pyruvate and 2 mM glutamine supplemented with 10% fetal bovine serum (FBS), 100 units/mL penicillin and 100 μg/mL streptomycin, and maintained at 37° C. and 95% humidity. Cells were subcultured by treatment with 0.25% trypsin with 0.1% EDTA in HBSS. Stable cell line generation was accomplished by co-transfecting 10 μg of DNA with 30 μg Lipofectamine 2000 (Invitrogen) in 75 cm^2 flasks. CL receptor and RAMP1 expression constructs were co-transfected in equal amounts. […]
[formula] Where Y is observed CPM bound, Ymax is total bound counts, Ymin is non specific bound counts, (Ymax−Ymin) is specific bound counts, % Imax is the maximum percent inhibition, % I min is the minimum percent inhibition, radiolabel is the probe, and the Kd is the apparent dissociation constant for the radioligand for the receptor as determined by Hot saturation experiments.

facial blood flow [5] = conditions: rat, trigeminal ganglion stimulation; cited from earlier work
middle meningeal artery = conditions: rats, electrical stimulation of the dura mater, prior administration; cited from earlier work

Compound: NCCCC[C@H](NC(=O)[C@@H](Cc1cc(Br)c(O)c(Br)c1)NC(=O)N1CCC(N2Cc3ccccc3NC2=O)CC1)C(=O)N1CCN(c2ccncc2)CC1 [BIBN4096BS]
- block of the increase in facial blood flow (facial blood flow [1]): could be blocked
- efficacy in treating acute attacks of migraine [2]: effective in treating acute attacks of migraine
- prevention of headache induced by CGRP infusion [3]: able to prevent headache induced by CGRP infusion

Compound: O=C(Cn1c(-c2ccccc2)c(Cl)nc(N2CCCC2)c1=O)Nc1ccc2c(c1)CC1(C2)C(=O)Nc2ncccc21 (stereo not drawn) [Example 5, 2-(5-Chloro-2-oxo-6-phenyl-3-pyrrolidin-1-ylpyrazin-1(2H)-yl)-N-(2′,-oxo-1,1′,2′,3-tetrahydrospiro[indene-2,3′-pyrrolo[2,3-b]pyridin]-5-yl)acetamide]
- Ki [4]: 130 nM

Compound: CGRP(8-37): a peptide CGRP antagonist; fragment of CGRP that lacks seven N-terminal amino acid residues (VTHRLAGLLSRSGGVVKNNFVPTNVGSKAF; ends and bridges not checked; UniProt P06881 90-119, looked up, fragment)
- inhibition of increased facial blood flow (facial blood flow [5]): inhibited
- block of the increase in diameter of the middle meningeal artery (middle meningeal artery): blocked
